Results taken from patent US20210301318A1, “A BIOMARKER AND TARGET FOR DIAGNOSIS, PROGNOSIS AND TREATMENT OF ANKYLOSING SPONDYLITIS” (priority 2018, published 2021).
“Also recorded” adds a separate entry of the source.

What was measured:
[1] = test system: AS MSCs; assay: Mineralization of AS MSCs under osteogenic induction (Alizarin red S staining); assay type: cell-based, human; conditions: 100 μM levamisole, 100 μM beryllium sulfate, or 1 μg/ml pamidronate
Description: The same passages (p3 to p5) of AS MSCs and N MSCs were compared.
The first culture condition was osteogenic induction, whereby α-MEM was supplemented with 10% fetal bovine serum (Gibco), 50 μg/mL ascorbate-2 phosphate (Sigma-Aldrich, St. Louis, Mo., USA), 10 nmol/L dexamethasone (Sigma-Aldrich), and 10 mmol/L β-glycerophosphate (Sigma-Aldrich). […] The medium was changed every 3 days. After appearance of the morphologic features of differentiation, cells were fixed with 4% paraformaldehyde. Cells treated by osteogenic culture were stained for Alizarin red S (Sigma-Aldrich) for mineralization. Quantification of Alizarin red S staining was conducted by measurement of the optical density (OD) of extracted dye at 550 nm with a plate reader (Molecular Devices, Sunnyvale, Calif., USA).
After morphological differentiation, cells were subjected to Alizarin red S staining.

[2] = molecular target: T1, TNAP (Homo sapiens, UniProt P05186); conditions: from references 22-24; cited from earlier work
T1 sequence (P05186 18-501 limits assumed): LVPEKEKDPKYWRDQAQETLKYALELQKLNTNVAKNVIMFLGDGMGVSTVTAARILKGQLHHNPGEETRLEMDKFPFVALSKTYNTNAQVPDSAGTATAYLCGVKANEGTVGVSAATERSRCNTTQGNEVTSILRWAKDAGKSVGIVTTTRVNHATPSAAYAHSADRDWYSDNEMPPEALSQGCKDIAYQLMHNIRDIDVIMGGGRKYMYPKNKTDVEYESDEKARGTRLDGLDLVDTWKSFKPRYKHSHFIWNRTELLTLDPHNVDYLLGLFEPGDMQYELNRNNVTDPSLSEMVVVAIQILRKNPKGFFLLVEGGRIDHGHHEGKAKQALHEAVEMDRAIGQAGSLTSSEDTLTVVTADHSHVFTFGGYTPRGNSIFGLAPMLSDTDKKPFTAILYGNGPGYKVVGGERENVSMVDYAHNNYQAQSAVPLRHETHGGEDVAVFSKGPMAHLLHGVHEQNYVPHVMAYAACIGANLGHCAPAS

[3] = test system: AS patients; conditions: cited from earlier work
[4] = test system: NOD-SCID mice implanted with AS MSCs; assay: New bony apposition in NOD-SCID mice implanted with AS MSCs (micro-computed tomography of lumbar spine); assay type: in vivo; conditions: daily oral administration: levamisole 10 mg/kg, beryllium sulfate 7.5 mg/kg, pamidronate 0.3 mg/kg; micro-CT 3 weeks after implantation
Description: The animal experimental protocol was approved by the Animal Care and Utilization Committee of Taipei Tzu Chi General Hospital. NOD-SCID mice (8-10 weeks) were purchased from BioLASCO (Taipei, Taiwan) and maintained in a specific pathogen-free environment. Human MSCs were treated with β-glycerophosphate in culture for 5 days, embedded in fibrin (10^6 cells in 5 μl fibrin) (Baxter, Vienna, Austria) and implanted in areas adjacent to right lamina of lumbar spine segments L4 to L5 in NOD-SCID mice. The lamina of lumbar spine was decorticated using the forceps. Mice were fed with a 0.9% phosphate diet (Dyets, Bethlehem, Pa., USA) after surgery. Micro-computed tomography (SkyScan 1076; Kontich, Belgium) over lumbar spines was undertaken 3 weeks after implantation. Bone mineral density over the femur measured by micro-computed tomography in NOD-SCID mice following implantation with AS MSCs and daily oral administration of H2O levamisole (10 mg/kg), beryllium sulfate tetrahydrate (7.5 mg/kg), or pamidronate (0.3 mg/kg) for 12 weeks. Quantitative volumes of new bony apposition were acquired by Bruker CT-Volume version 2.0 software.

| Compound | accelerated mineralization in AS MSCs (ARS staining) [1] | type of TNAP inhibition [2] | inflammation of AS patients ([3]; some studies, references 26-29) | new bony apposition induced by AS MSCs [4] | serum BAP levels ([3]; one study, reference 34) |
| --- | --- | --- | --- | --- | --- |
| O.O.O.O.O=S(=O)([O-])[O-].[Be+2] [beryllium sulfate, BeSO4•4H2O] | blocked effectively | competitive |  |  |  |
| c1ccc([C@H]2CN3CCSC3=N2)cc1 [levamisole, (6S)-6-phenyl-2H,3H,5H,6H-imidazo[2,1-b][1,3]thiazole] | blocked effectively; also recorded: inhibit this abnormal mineralization | uncompetitive | marginally reduce inflammation | blocked |  |
| NCCC(O)(P(=O)(O)O)P(=O)(O)O [pamidronate] | blocked effectively; also recorded: inhibit this abnormal mineralization | uncompetitive |  | blocked | lowering serum BAP levels |
